Results published in ChEMBL document CHEMBL4507291 (2021).

Assays:
[1] = molecular target: T1, Cytoplasmic tyrosine-protein kinase BMX (Homo sapiens) (UniProt P51813)
T1 sequence (whole entry): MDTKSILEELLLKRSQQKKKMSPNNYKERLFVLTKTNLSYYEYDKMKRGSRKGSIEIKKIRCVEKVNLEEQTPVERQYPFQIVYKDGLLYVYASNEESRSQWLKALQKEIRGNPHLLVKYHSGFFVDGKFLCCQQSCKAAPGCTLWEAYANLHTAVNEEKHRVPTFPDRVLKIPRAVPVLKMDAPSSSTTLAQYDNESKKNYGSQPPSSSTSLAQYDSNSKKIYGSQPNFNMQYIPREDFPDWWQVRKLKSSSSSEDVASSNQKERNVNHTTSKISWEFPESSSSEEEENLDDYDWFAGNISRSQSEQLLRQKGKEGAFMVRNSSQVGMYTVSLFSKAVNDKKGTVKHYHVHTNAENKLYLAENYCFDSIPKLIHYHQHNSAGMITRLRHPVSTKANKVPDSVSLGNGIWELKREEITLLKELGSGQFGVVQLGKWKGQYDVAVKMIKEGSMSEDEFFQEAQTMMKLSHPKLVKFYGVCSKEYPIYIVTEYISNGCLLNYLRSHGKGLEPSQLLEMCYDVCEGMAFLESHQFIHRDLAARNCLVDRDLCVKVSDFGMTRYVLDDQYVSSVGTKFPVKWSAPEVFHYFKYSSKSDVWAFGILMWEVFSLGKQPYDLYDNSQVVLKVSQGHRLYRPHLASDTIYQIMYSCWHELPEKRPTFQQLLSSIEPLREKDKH

[2] = molecular target: Epidermal growth factor receptor (Homo sapiens) (UniProt P00533)
[3] = molecular target: T2, Ephrin type-B receptor 4 (Homo sapiens) (UniProt P54760)
T2 sequence (whole entry): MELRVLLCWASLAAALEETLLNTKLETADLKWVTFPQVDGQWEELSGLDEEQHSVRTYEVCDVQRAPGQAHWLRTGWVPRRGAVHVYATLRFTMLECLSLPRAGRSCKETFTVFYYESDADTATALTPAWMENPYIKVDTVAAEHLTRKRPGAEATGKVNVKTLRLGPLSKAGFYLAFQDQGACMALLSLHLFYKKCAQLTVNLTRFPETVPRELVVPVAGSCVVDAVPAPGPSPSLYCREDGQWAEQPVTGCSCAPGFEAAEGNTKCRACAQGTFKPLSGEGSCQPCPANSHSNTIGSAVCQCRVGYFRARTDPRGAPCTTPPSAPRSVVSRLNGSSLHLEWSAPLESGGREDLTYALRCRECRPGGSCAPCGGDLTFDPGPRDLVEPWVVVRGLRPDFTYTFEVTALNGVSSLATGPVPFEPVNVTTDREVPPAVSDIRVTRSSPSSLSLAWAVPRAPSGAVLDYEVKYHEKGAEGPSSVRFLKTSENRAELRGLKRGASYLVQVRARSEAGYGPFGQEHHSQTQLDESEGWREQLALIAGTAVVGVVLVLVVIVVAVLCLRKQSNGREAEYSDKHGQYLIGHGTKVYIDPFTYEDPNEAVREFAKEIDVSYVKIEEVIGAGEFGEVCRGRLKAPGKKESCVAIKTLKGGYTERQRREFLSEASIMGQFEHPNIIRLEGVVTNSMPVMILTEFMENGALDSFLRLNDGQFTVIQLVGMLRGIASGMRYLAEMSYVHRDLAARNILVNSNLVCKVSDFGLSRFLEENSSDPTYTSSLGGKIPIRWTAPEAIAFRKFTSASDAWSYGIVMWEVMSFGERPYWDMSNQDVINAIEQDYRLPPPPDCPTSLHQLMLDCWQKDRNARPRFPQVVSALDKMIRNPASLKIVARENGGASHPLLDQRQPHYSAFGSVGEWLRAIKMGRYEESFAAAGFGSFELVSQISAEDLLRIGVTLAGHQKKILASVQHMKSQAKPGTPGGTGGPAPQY

[4] = molecular target: Tyrosine-protein kinase JAK2 (Homo sapiens) (UniProt O60674)
[5] = molecular target: Mitogen-activated protein kinase kinase kinase 15 (Homo sapiens) (UniProt Q6ZN16)
[6] = molecular target: T3, Dual specificity mitogen-activated protein kinase kinase 6 (Homo sapiens) (UniProt P52564)
T3 sequence (whole entry): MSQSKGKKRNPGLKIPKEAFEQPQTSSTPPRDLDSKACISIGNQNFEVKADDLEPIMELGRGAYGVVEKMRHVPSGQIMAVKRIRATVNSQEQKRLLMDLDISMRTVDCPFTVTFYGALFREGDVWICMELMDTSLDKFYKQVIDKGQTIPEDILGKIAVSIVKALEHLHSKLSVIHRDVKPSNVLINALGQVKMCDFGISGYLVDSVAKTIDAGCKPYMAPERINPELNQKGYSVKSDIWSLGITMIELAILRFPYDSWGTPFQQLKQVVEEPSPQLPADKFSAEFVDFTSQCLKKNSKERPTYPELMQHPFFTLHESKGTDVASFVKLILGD

[7] = Compound concentration 1000.0 nM
[8] = Compound concentration 100.0 nM

Measured: residual activity

Mitogen-activated protein kinase kinase kinase 15 (Homo sapiens), sequence (Q6ZN16 whole entry): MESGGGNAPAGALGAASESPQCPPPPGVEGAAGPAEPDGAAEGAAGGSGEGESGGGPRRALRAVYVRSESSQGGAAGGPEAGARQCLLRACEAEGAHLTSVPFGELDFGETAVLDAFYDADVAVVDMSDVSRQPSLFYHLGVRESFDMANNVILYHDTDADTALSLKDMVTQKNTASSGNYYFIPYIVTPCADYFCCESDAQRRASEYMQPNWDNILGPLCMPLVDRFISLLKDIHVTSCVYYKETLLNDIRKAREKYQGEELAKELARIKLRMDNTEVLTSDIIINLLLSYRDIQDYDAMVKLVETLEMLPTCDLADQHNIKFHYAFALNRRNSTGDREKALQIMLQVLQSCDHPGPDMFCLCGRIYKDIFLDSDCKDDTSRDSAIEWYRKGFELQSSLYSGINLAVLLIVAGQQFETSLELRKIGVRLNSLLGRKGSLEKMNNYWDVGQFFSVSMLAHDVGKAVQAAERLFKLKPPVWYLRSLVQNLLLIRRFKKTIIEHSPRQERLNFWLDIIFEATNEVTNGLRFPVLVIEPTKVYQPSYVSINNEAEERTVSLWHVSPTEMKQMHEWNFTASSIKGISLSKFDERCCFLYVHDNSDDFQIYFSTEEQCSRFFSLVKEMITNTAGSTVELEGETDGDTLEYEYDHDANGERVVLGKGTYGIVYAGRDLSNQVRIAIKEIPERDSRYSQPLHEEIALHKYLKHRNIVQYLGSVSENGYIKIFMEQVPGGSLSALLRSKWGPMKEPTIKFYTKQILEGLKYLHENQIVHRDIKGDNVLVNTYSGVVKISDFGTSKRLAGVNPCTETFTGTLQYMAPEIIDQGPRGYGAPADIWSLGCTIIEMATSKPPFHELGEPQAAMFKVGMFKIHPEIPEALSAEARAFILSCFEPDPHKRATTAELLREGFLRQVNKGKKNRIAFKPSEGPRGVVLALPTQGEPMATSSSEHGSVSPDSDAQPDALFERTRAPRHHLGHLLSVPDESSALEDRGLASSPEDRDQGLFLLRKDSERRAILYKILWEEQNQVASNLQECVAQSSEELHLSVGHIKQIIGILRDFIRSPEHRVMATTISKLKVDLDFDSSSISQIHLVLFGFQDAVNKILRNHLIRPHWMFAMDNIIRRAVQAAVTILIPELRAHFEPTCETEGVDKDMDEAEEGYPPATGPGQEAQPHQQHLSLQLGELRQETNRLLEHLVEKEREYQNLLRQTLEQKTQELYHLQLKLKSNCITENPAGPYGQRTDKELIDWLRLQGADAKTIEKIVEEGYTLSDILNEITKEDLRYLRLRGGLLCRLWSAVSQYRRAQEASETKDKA
Epidermal growth factor receptor (Homo sapiens), sequence (P00533 whole entry): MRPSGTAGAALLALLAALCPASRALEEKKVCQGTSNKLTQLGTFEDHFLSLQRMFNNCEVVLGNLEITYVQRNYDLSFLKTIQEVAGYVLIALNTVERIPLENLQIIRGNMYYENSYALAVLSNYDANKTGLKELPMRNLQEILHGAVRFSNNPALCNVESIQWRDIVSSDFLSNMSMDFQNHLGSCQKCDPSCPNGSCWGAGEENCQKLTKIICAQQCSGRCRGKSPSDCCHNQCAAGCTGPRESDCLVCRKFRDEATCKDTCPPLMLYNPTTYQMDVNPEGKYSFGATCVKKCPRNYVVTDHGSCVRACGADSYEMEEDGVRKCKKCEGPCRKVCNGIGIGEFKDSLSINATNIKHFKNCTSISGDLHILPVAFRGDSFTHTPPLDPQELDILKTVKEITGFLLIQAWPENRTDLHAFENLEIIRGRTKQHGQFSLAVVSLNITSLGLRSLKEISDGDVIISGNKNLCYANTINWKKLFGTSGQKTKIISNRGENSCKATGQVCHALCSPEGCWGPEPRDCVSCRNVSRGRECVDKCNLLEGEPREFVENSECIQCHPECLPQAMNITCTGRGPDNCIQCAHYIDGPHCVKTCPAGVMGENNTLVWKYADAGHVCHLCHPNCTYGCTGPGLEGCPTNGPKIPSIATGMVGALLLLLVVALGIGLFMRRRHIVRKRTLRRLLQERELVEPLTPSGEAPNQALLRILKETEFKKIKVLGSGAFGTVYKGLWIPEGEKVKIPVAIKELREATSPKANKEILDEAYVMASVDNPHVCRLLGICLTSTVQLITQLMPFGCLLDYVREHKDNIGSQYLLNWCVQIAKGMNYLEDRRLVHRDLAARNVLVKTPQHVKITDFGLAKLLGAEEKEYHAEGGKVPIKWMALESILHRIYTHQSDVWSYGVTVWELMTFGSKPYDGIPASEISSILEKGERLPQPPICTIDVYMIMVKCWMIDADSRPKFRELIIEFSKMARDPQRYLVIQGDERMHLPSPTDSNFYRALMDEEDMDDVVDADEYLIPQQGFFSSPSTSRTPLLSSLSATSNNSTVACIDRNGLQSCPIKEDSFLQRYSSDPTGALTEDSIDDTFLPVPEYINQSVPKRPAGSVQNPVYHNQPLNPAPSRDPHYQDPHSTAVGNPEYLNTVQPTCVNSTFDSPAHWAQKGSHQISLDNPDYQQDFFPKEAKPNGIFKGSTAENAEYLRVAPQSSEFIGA
Tyrosine-protein kinase JAK2 (Homo sapiens), sequence (O60674 whole entry): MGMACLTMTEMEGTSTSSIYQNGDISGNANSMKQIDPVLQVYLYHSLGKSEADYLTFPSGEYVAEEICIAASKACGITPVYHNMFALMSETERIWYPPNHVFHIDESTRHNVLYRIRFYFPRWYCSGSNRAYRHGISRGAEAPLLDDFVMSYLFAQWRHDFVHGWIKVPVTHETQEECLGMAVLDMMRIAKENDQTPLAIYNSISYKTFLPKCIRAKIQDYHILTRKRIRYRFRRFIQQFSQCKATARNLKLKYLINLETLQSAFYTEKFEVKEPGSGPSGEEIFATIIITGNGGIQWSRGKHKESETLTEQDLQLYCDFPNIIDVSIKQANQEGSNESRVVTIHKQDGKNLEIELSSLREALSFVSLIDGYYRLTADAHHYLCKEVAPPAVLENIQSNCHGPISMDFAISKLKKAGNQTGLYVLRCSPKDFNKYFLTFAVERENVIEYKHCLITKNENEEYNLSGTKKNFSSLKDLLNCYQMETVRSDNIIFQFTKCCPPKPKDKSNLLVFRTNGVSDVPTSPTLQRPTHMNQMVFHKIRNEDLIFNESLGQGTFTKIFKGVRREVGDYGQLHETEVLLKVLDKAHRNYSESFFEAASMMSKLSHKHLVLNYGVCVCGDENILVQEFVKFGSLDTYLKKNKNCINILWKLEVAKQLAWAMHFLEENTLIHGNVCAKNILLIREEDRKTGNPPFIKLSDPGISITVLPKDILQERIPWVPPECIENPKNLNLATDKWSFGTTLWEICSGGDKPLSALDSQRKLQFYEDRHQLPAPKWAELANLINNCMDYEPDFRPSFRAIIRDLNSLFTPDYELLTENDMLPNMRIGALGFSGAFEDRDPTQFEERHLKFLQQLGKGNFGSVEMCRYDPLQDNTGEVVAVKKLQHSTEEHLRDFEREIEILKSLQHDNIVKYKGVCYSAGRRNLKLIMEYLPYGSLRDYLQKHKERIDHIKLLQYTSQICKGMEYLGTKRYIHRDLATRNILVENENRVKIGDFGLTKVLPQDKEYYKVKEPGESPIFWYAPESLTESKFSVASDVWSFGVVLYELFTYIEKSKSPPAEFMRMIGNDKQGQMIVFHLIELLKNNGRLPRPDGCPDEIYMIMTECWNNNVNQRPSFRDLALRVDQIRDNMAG

C[C@@H]1CN(c2cc(-c3nn(C)c4ccc(OC5(C)CC5)cc34)ncn2)C[C@H](C)O1 [MLi-2-NC]
inactive: [1]; [7] 93% | [2]; [7] 97% | [3]; [7] 100% | [4]; [7] 55% | [5]; [7] 80% | [6]; [7] 89%

C[C@@H]1CN(c2cc(-c3n[nH]c4ccc(OC5(C)CC5)cc34)ncn2)C[C@H](C)O1 [MLi-2]
inactive: [1]; [8] 80% | [2]; [8] 76% | [3]; [8] 79% | [4]; [8] 77% | [5]; [8] 67% | [6]; [8] 100%
